Consider five compounds from patent publication US8124743B2, “Purification of a bivalently active antibody using a non-chromatographic method” (President and Fellows of Harvard College, priority 2006, dated 2012).

The target of test [1] is rat anti-2,4-dinitrophenyl IgG (IgG^DNP, clone LO-DNP-2). Nature of the test: Monovalent dissociation constant of hapten for anti-2,4-DNP IgG, method not given. It counts as binding. The note with it: read-out: monovalent Kd (Kd^affinity) of hapten for IgG^DNP.
Test [2] has as its system anti-2,4-DNP IgG (clone LO-DNP-2). The experiment in a line: SE-HPLC of formation and dissociation of cyclic IgG aggregates. It counts as biochemical, rat. The note with it: for dissociation of IgG aggregates by excess monovalent hapten: about 1 mM monovalent hapten, SE-HPLC. The procedure: We used size-exclusion chromatography (SE-HPLC) to follow the purification process. This analytical technique has the advantage that we can resolve monomeric, dimeric, trimeric, and tetrameric antibody aggregates on the column. It has the disadvantage that these aggregates must be kinetically stable (in the absence of competing monovalent hapten) over the time required to carry out a separation (retention time, tr˜15 min).
Validation of Size-Exclusion Chromatography (SE-HPLC) to Examine Aggregates of IgG. Size-exclusion chromatography (SE-HPLC) can resolve the cyclic aggregates of antibodies from each other and from monomeric IgG (FIG. 6). The commercially available purified IgG gave predominantly one peak by SE-HPLC (FIG. 6a) at a retention time (˜15.6 min) consistent with the size of monomeric IgG (˜150 kDa) based on a molecular weight calibration plot (FIG. 3). We formed aggregates in >90% conversion by incubating IgG (2 μM) with 5-10 equivalents of bi and trivalent molecules in chart 1 for 12 hours. […] These antibody aggregates dissociated rapidly (<1 min) in the presence of excess monovalent hapten (6) (1 μM anti-2,4-DNP; 1 μM 1; 1000 μM 6) (FIG. 6c).

Test [3] has as its target IgG from clone (LO-DNP-2), anti-DNP. Nature of the test: Fluorescence titration (tryptophan quenching) for the monovalent dissociation constant. As to conditions: read-out: monovalent dissociation constant (Kd^affinity). It counts as binding, rat. The procedure:
Determination of dissociation constant of antibody and 2,4-DNP. The binding of DNP derivatives to anti-DNP quenches the fluorescence of tryptophan residues of the antibody. We conducted a fluorescence titration to determine the monovalent dissociation constant (Kd^affinity) of the IgG from clone (LO-DNP-2) for Ac2DNP-Lys, and obtained a value of 0.40±0.08 nM.

“And” between values parts separate entries of the source, which are not always exact repeats. Equal entries are not always repeated. Where two headings read alike, the source gives them in different places.

Consider 2,4-dinitrophenyl [2,4-DNP], for which the equilibrium dissociation constant (Kd) in test [1] (listed as DNP) was 8 nM and ~8 nM.
As for 4-nitrophenyl [4-NP], in test [1], the Kd was 500 nM and ~500 nM.
For `NCCCC[C@H](Nc1ccc([N+](=O)[O-])cc1[N+](=O)[O-])C(=O)O` [compound 6, 2,4-dinitrophenyl lysine], the “time for dissociation of antibody aggregates by excess monovalent hapten” value in test [2] (1 μM anti-2,4-DNP, 1 μM 1, 1000 μM 6) was under 1 min. Further, the “dissociation of IgG aggregates by excess monovalent hapten” value in test [2] is listed as “completely dissociated”.
As for Ac2DNP-Lys, the Kd in test [3] is 0.4 ± 0.08 nM.
For the compound `O=[N+]([O-])c1ccc(OC2O[C@H](CO)[C@@H](O)[C@H](O)[C@H]2O)cc1` (stereo partly shown) [compound 7, 4-nitrophenylglucose], in test [1], the Kd was about 500 nM. The “dissociation of IgG aggregates by excess monovalent hapten” value in test [2] is recorded as “completely dissociated”.
